Data: US9556135B2, “Amino-dihydrothiazine and amino-dioxido dihydrothiazine compounds as beta-secretase antagonists and methods of use” (Amgen Inc., priority 2012, dated 2017)

Test system: Abeta 40
Experiment: In vivo inhibition of beta-secretase: Abeta 40 reduction in CSF and brain of the rat
Conditions: 10 mpk (unless otherwise noted), after 4 hrs
From the text: In Vivo Inhibition of Beta-Secretase
Several animal models, including mouse, rat, dog, and monkey, may be used to screen for inhibition of beta-secretase activity in vivo following administration of a test compound sample. Animals used in this invention can be wild type, transgenic, or gene knockout animals. […] One to twenty-four hours following the administration of compound, animals are sacrificed, and brains as well as cerebrospinal fluid (CSF) and plasma are removed for analysis of A-beta levels and drug or test compound concentrations (Dovey et al., 2001, Journal of Neurochemistry, 76, 173-181) Beginning at time 0, animals are administered by oral gavage, or other means of delivery such as intravenous injection, an inhibitory test compound of up to 100 mg/kg in a standard, conventional formulation, such as 2% hydroxypropyl methylcellulose, 1% Tween80. A separate group of animals receive 2% hydroxypropyl methylcellulose, 1% Tween80 alone, containing no test compound, and serve as a vehicle-control group. At the end of the test period, animals are sacrificed and brain tissues, plasma or cerebrospinal fluid are collected. Brains are either homogenized in 10 volumes (w/v) of 0.2% diethylamine (DEA) in 50 mM NaCl (Best et al., 2005, Journal of Pharmacology and Experimental Therapeutics, 313, 902-908), or in 10 volumes of 0.5% TritonX-100 in Tris-buffered saline (pH at about 7.6). Homogenates are centrifuged at 355,000 g, 4° C. for 30 minutes. CSF or brain supernatants are then analyzed for the presence of A-beta peptide by specific sandwich ELISA assays based on ECL (Electrochemiluminescence) technology. For example, rat Abeta40 is measured using biotinylated-4G8 (Signet) as a capture antibody and Fab40 (an in-house antibody specific to the C-terminal of Abeta40) as a detection antibody.
Actual vehicles used: Oral: 2% HPMC, 1% Tween80, pH 2.2

Compound	% reduction of rat CSF levels at 10 pmk [%]	% reduction of rat brain levels at 10 mpk [%]
CC1(C)C(N)=N[C@](C)(c2cc(NC(=O)c3ccc(F)cn3)ccc2F)CS1(=O)=O [Example 18, N-(3-((3R)-5-amino-3,6,6-trimethyl-1,1-dioxido-3,6-dihydro-2H-1,4-thiazin-3-yl)-4-fluorophenyl)-5-fluoro-2-pyridinecarboxamide]	73	57
CC1(C)C(N)=N[C@](C)(c2cc(NC(=O)c3ccc(Cl)cn3)ccc2F)CS1(=O)=O [Example 19, N-(3-((3R)-5-amino-3,6,6-trimethyl-1,1-dioxido-3,6-dihydro-2H-1,4-thiazin-3-yl)-4-fluorophenyl)-5-chloro-2-pyridinecarboxamide]	83	74
COc1cnc(C(=O)Nc2ccc(F)c([C@]3(C)CS(=O)(=O)[C@@](C)(F)C(N)=N3)c2)cn1 [Example 30, N-(3-((3R,6R)-5-amino-6-fluoro-3,6-dimethyl-1,1-dioxido-3,6-dihydro-2H-1,4-thiazin-3-yl)-4-fluorophenyl)-5-methoxy-2-pyrazinecarboxamide]	56	37
CC1(C)C(N)=N[C@](C)(c2cc(Nc3nccc4cc(Cl)cnc34)ccc2F)CS1(=O)=O [Example 45, N-(3-((3R)-5-amino-3,6,6-trimethyl-1,1-dioxido-3,6-dihydro-2H-1,4-thiazin-3-yl)-4-fluorophenyl)-3-chloro-1,7-naphthyridin-8-amine]	63	34
COc1cnc2c(Nc3ccc(F)c([C@]4(C)CS(=O)(=O)C(C)(C)C(N)=N4)c3)nccc2c1 [Example 46, N-(3-((3R)-5-amino-3,6,6-trimethyl-1,1-dioxido-3,6-dihydro-2H-1,4-thiazin-3-yl)-4-fluorophenyl)-3-methoxy-1,7-naphthyridin-8-amine]	76	64
COc1cnc2c(Nc3ccc(F)c([C@]4(C)CS(=O)(=O)C(C)(C)C(N)=N4)c3)nccc2n1 [Example 47, N-(3-((3R)-5-amino-3,6,6-trimethyl-1,1-dioxido-3,6-dihydro-2H-1,4-thiazin-3-yl)-4-fluorophenyl)-2-methoxypyrido[3,4-b]pyrazin-5-amine]	82	66
CC1(C)C(N)=N[C@](C)(c2cc(Nc3nccc4cc(C#N)cnc34)ccc2F)CS1(=O)=O [Example 48, 8-((3-((3R)-5-amino-3,6,6-trimethyl-1,1-dioxido-3,6-dihydro-2H-1,4-thiazin-3-yl)-4-fluorophenyl)amino)-1,7-naphthyridine-3-carbonitrile]	79	59
CC1(C)C(N)=N[C@](C)(c2cc(Nc3ncc(F)c4cc(C#N)cnc34)ccc2F)CS1(=O)=O [Example 76, (R)-8-((3-(5-Amino-3,6,6-trimethyl-1,1-dioxido-3,6-dihydro-2H-1,4-thiazin-3-yl)-4-fluorophenyl)amino)-5-fluoro-1,7-naphthyridine-3-carbonitrile]	60	46
C[C@@]1(c2cc(NC(=O)c3ccc(Cl)cn3)ccc2F)CS(=O)(=O)C2(CC(F)(F)C2)C(N)=N1 [Example 120, (R)—N-(3-(9-amino-2,2-difluoro-7-methyl-5,5-dioxido-5-thia-8-azaspiro[3.5]non-8-en-7-yl)-4-fluorophenyl)-5-chloropicolinamide]	39	18
C[C@]1(c2cc(NC(=O)c3ccc(Cl)cn3)ccc2F)N=C(N)C2(CCC2)S(=O)(=O)[C@@H]1F [Example 131, N-(3-((6S,7R)-9-amino-6-fluoro-7-methyl-5,5-dioxido-5-thia-8-azaspiro[3.5]non-8-en-7-yl)-4-fluorophenyl)-5-chloropicolinamide]	10	−18
Cc1cc(OC(F)F)cnc1C(=O)Nc1ccc(F)c([C@@]2(C)N=C(N)C3(CCC3)S(=O)(=O)[C@@H]2F)c1 [Example 132, N-(3-((6S,7R)-9-amino-6-fluoro-7-methyl-5,5-dioxido-5-thia-8-azaspiro[3.5]non-8-en-7-yl)-4-fluorophenyl)-5-(difluoromethoxy)-3-methylpicolinamide]	31	10
Cc1cc(OC(F)F)cnc1C(=O)Nc1ccc(F)c([C@]2(C)CS(=O)(=O)C(C)(C)C(N)=N2)c1 [Example 144, (R)—N-(3-(5-amino-3,6,6-trimethyl-1,1-dioxido-3,6-dihydro-2H-1,4-thiazin-3-yl)-4-fluorophenyl)-5-(difluoromethoxy)-3-methylpicolinamide]	79	72
Cc1cc(OC(F)F)cnc1C(=O)Nc1ccc(F)c([C@]2(CF)CS(=O)(=O)C(C)(C)C(N)=N2)c1 [Example 148, (S)—N-(3-(5-amino-3-(fluoromethyl)-6,6-dimethyl-1,1-dioxido-3,6-dihydro-2H-1,4-thiazin-3-yl)-4-fluorophenyl)-5-(difluoromethoxy)-3-methylpicolinamide]	68	57
Cc1c(C(=O)Nc2ccc(F)c([C@]3(CF)CS(=O)(=O)C(C)(C)C(N)=N3)c2)nc2ccc(Cl)cn12 [Example 158, (S)—N-(3-(5-amino-3-(fluoromethyl)-6,6-dimethyl-1,1-dioxido-3,6-dihydro-2H-1,4-thiazin-3-yl)-4-fluorophenyl)-6-chloro-3-methylimidazo[1,2-a]pyridine-2-carboxamide]	11	−5
COc1cnc2c(Nc3ccc(F)c([C@]4(CF)CS(=O)(=O)C(C)(C)C(N)=N4)c3)ncc(F)c2c1 [Example 159, (S)-5-amino-3-(2-fluoro-5-((5-fluoro-3-methoxy-1,7-naphthyridin-8-yl)amino)phenyl)-3-(fluoromethyl)-6,6-dimethyl-3,6-dihydro-2H-1,4-thiazine 1,1-dioxide]	45	31
Cc1cc(OC(F)F)cnc1C(=O)Nc1cc([C@]2(C)CS(=O)(=O)C(C)(C)C(N)=N2)c(=O)n(C)c1 [Example 171, (R)—N-(5-(5-amino-3,6,6-trimethyl-1,1-dioxido-3,6-dihydro-2H-1,4-thiazin-3-yl)-1-methyl-6-oxo-1,6-dihydropyridin-3-yl)-5-(difluoromethoxy)-3-methylpicolinamide]	1	3
COc1cnc2c(Nc3ccc(F)c([C@]4(C)CS(=O)(=O)[C@@](C)(F)C(N)=N4)c3)ncnc2c1 [Example 177, (3R,6R)-5-Amino-6-fluoro-3-(2-fluoro-5-((7-methoxypyrido[3,2-d]pyrimidin-4-yl)amino)phenyl)-3,6-dimethyl-3,6-dihydro-2H-1,4-thiazine 1,1-dioxide]	37	24
CC1(C)C(N)=N[C@](CF)(c2cc(NC(=O)c3ccc(Cl)cn3)ccc2F)CS1(=O)=O [Example 193, (S)—N-(3-(5-amino-3-(fluoromethyl)-6,6-dimethyl-1,1-dioxido-3,6-dihydro-2H-1,4-thiazin-3-yl)-4-fluorophenyl)-5-chloropicolinamide]	57	30
Cc1cc(Cl)cnc1C(=O)Nc1ccc(F)c([C@]2(CF)CS(=O)(=O)C3(CC3)C(N)=N2)c1 [Example 216, (S)—N-(3-(8-amino-6-(fluoromethyl)-4,4-dioxido-4-thia-7-azaspiro[2.5]oct-7-en-6-yl)-4-fluorophenyl)-5-chloro-3-methylpicolinamide]	57	14
COc1cnc2c(Nc3cnc(F)c([C@]4(C)CS(=O)(=O)C(C)(C)C(N)=N4)c3)ncc(F)c2c1 [Example 219, N-(5-((3R)-5-amino-3,6,6-trimethyl-1,1-dioxido-3,6-dihydro-2H-1,4-thiazin-3-yl)-6-fluoro-3-pyridinyl)-5-fluoro-3-methoxy-1,7-naphthyridin-8-amine]	42	9
COc1cnc2c(Nc3cnc(F)c([C@]4(C)CS(=O)(=O)C(C)(C)C(N)=N4)c3)nccc2n1 [Example 222, N-(5-((3R)-5-amino-3,6,6-trimethyl-1,1-dioxido-3,6-dihydro-2H-1,4-thiazin-3-yl)-6-fluoro-3-pyridinyl)-2-methoxypyrido[3,4-b]pyrazin-5-amine]	65	49
